# Columns and labels:
# [1] = tested on: α-HL-Pol6 nanopore-polymerase conjugate
# [2] = tested on: exonuclease deficient variant of the Pol6 polymerase; test: Displacement assay of single-, double-, triple- and quadruple-nucleotide substrates (Example 3); assay type: biochemical
# Excerpt: The assay is a displacement assay using an exonuclease deficient variant of the Pol6 polymerase as described in Example 2, wherein polymerase activity is followed by fluorometrically monitoring the change in FRET between the Cy5 and BHQ labels as the polymerase incorporates the substrates in the DNA extension reaction.
# Briefly, an assay solution containing the Pol6 polymerase, the 5′-Cy5-labelled displacement DNA template of SEQ ID NO: 124, and the 3′-BHQ-labelled quencher primer of SEQ ID NO: 124 in 75 mM potassium glutamate (“K-Glu”) is prepared in the absence of the substrate or Mg^2+ ion. A substrate solution is prepared containing either the multi-nucleotide compound to be assayed (i.e., “Y-Tag,” “W-Tag,” or “Q-Tag”), the non-tagged dT6P (“Hexa-PO4), or the tagged single nucleotide substrate, dA6P-dT30-C3 (“Full Tag”) of compound (3d). Also included in the substrate solution are the other three nucleotide-hexaphosphate (“dN6P”) substrates required for polymerase synthesis of a strand complementary to the DNA template (i.e., dA6P, dC6P, dG6P). This substrate solution is added to the polymerase solution. Assays are carried out for each of the test substrates at the following initial concentrations: 0.25 μM, 0.5 μM, 1.0 μM, 2.0 μM, 4.0 μM, and 8.0 μM. Additional K-Glu is added to bring the total K-Glu concentration in the mixture up to 300 mM. The polymerase reaction is then initiated by addition of MgCl2. Final concentrations in the assay reaction mixture are: 100 nM Pol6 enzyme, 50 nM Cy5 displacement DNA template, 40 μM each of other dN6P substrates, 300 mM K-Glu, 25 mM HEPES, 0.2 mM EDTA, 0.05% Triton X-100, 5 mM TCEP, 25 μg/mL BSA, 5 mM MgCl2, pH 7.5.
molecule,measurement,setting,value
"(dG6P)2-dT6-(Tmp)6-dT8-C3: two dG6P linked via doubler-linker to tag SEQ ID NO: 107 (DNA TTTTTTNNNNNNTTTTTTTT; two dG6P via doubler linker, Tmp, C3 cap; (7)..(12) thymidine methylphosphonate; (20)..(20) T-propanol)",Blocking current level,[1],0.38+/−0.08 Fraction of Open Current
"(dC6P)2-dT20-C3: two dC6P linked via doubler-linker to tag SEQ ID NO: 105 (DNA tttttttttttttttttttt; two dC6P via doubler linker, C3 cap; (20)..(20) T-propanol)",Blocking current level,[1],0.76+/−0.04 Fraction of Open Current
Cc1cn([C@H]2C[C@H](O)[C@@H](COP(=O)(O)OP(=O)(O)OP(=O)(O)OP(=O)(O)OP(=O)(O)OP(=O)(O)O)O2)c(=O)[nH]c1=O [dT6P],Rate (Bases/sec),[2]; Initial Conc. Tag 0.25 μM,0.57 Bases/sec
same,Rate (Bases/sec),[2]; Initial Conc. Tag 0.5 μM,2.87 Bases/sec
same,Rate (Bases/sec),[2]; Initial Conc. Tag 1.0 μM,3.48 Bases/sec
same,Rate (Bases/sec),[2]; Initial Conc. Tag 2.0 μM,3.89 Bases/sec
same,Rate (Bases/sec),[2]; Initial Conc. Tag 4.0 μM,4.48 Bases/sec
same,Rate (Bases/sec),[2]; Initial Conc. Tag 8.0 μM,4.24 Bases/sec
(dT6P)2-dT4-(N3CE-dT)3-dT13-C3: two dT6P linked via doubler-linker to tag SEQ ID NO: 106 (DNA TTTTNNNTTTTTTTTTTTTT; chemistry not fully specified),Blocking current level,[1],0.62+/−0.05 Fraction of Open Current
"(dA6P)2-dT5-(BHEB)-dT14-C3: two dA6P linked via doubler-linker to tag SEQ ID NO: 109 (DNA TTTTTNTTTTTTTTTTTTTT; two dA6P via doubler linker, BHEB, C3 cap, chemistry not fully specified)",Blocking current level,[1],0.88+/−0.03 Fraction of Open Current
